biological target: T1, ALDH1A3 (Homo sapiens, UniProt P47895); assay: Primary biochemical assay, NAD(P)H-Glo Detection System; parameters: His-tag; made in house; host or cells: E. coli Rosetta (DE3); details: 30 min pre-incubation, propionaldehyde and NAD at Km
T1 sequence (P47895 1-512): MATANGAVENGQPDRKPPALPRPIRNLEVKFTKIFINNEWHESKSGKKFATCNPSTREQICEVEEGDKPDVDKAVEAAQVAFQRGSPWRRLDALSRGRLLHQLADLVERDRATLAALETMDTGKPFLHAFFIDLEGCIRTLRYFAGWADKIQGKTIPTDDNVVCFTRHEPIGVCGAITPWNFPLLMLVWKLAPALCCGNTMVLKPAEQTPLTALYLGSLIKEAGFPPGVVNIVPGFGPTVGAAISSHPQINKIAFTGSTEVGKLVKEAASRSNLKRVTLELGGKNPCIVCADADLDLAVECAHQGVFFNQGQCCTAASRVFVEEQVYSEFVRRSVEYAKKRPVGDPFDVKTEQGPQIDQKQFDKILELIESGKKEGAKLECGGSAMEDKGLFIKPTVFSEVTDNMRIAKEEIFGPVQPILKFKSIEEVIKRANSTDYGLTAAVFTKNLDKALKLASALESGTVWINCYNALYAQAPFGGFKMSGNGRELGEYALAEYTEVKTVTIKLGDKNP
In short: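 Recombinant full-length His-tagged human enzymes expressed in E. coli were pre-incubated 30 min at room temperature with compound (10-point, 3-fold series; top 20 μM for ALDH1A3, 250 μM for ALDH1A1/1A2). Propionaldehyde and NAD were then added at Km; NADH was read by NAD(P)H-Glo luminescence. Buffer: Tris (pH 7.6 for 1A1/1A2, 9.0 for 1A3), 1 mM TCEP, 0.01% Tween-20.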

Row | SMILES | IC50
1 | O=C1CCc2cc(OCCN3CCC[C@@H]3c3cccc(F)c3)ccc2N1 [ALDHI-2007, 6-[2-[(2R)-2-(3-fluorophenyl)pyrrolidin-1-yl]ethoxy]-3,4-dihydro-1H-quinolin-2-one] | < 100 nM
2 | O=C1CSc2cc(OCCN3CCCC3c3cccc(F)c3)ccc2N1 (stereo not shown) [ALDHI-2008, 7-[2-[2-(3-fluorophenyl)pyrrolidin-1-yl]ethoxy]-4H-1,4-benzothiazin-3-one] | < 100 nM
3 | O=C1COc2cc(OCCN3CCCC3c3cccc(F)c3)ccc2N1 (stereo not shown) [ALDHI-2009, 7-[2-[2-(3-fluorophenyl)pyrrolidin-1-yl]ethoxy]-4H-1,4-benzoxazin-3-one] | 100 to 1000 nM
4 | Cc1ccc(C2CCCN2CCOc2ccc3c(c2)CCC(=O)N3)cc1 (stereo not shown) [ALDHI-2010, 6-[2-[2-(p-tolyl)pyrrolidin-1-yl]ethoxy]-3,4-dihydro-1H-quinolin-2-one] | < 100 nM
5 | Cc1cccc(C2CCCN2CCOc2ccc3c(c2)CCC(=O)N3)c1 (stereo not shown) [ALDHI-2011, 6-[2-[2-(m-tolyl)pyrrolidin-1-yl]ethoxy]-3,4-dihydro-1H-quinolin-2-one] | 100 to 1000 nM
6 | Cc1ccccc1C1CCCN1CCOc1ccc2c(c1)CCC(=O)N2 (stereo not shown) [ALDHI-2012, 6-[2-[2-(o-tolyl)pyrrolidin-1-yl]ethoxy]-3,4-dihydro-1H-quinolin-2-one] | 100 to 1000 nM
7 | O=C1CCc2cc(OCCN3CCCC3c3cccs3)ccc2N1 (stereo not shown) [ALDHI-2013, 6-[2-[2-(2-thienyl)pyrrolidin-1-yl]ethoxy]-3,4-dihydro-1H-quinolin-2-one] | < 100 nM
8 | O=C1CCc2cc(OCCN3CCCC3c3ccsc3)ccc2N1 (stereo not shown) [ALDHI-2014, 6-[2-[2-(3-thienyl)pyrrolidin-1-yl]ethoxy]-3,4-dihydro-1H-quinolin-2-one] | < 100 nM
9 | CCn1cc(C2CCCN2CCOc2ccc3c(c2)CCC(=O)N3)cn1 (stereo not shown) [ALDHI-2016, 6-[2-[2-(1-ethylpyrazol-4-yl)pyrrolidin-1-yl]ethoxy]-3,4-dihydro-1H-quinolin-2-one] | 100 to 1000 nM
10 | O=C1CCc2cc(OCCN3CCC[C@H]3c3cccc(F)c3)ccc2N1 [ALDHI-2018, 6-[2-[(2S)-2-(3-fluorophenyl)pyrrolidin-1-yl]ethoxy]-3,4-dihydro-1H-quinolin-2-one] | < 100 nM
11 | O=C1CCc2cc(OCCN3CCCC3c3ccccc3)ccc2N1 (stereo not shown) [ALDHI-2019, 6-[2-(2-phenylpyrrolidin-1-yl)ethoxy]-3,4-dihydro-1H-quinolin-2-one] | 100 to 1000 nM
12 | O=C1CCCc2cc(OCCN3CCCC3c3cccc(F)c3)ccc2N1 (stereo not shown) [ALDHI-2020, 7-[2-[2-(3-fluorophenyl)pyrrolidin-1-yl]ethoxy]-1,3,4,5-tetrahydro-1-benzazepin-2-one] | < 100 nM
13 | O=C1CCc2cc(OCCN3CCC3c3cccc(F)c3)ccc2N1 (stereo not shown) [ALDHI-2021, 6-[2-[2-(3-fluorophenyl)azetidin-1-yl]ethoxy]-3,4-dihydro-1H-quinolin-2-one] | 100 to 1000 nM
14 | O=c1ccc2cc(OCCN3CCCC3c3cccc(F)c3)ccc2[nH]1 (stereo not shown) [ALDHI-2022, 6-[2-[2-(3-fluorophenyl)pyrrolidin-1-yl]ethoxy]-1H-quinolin-2-one] | < 100 nM
15 | O=C1CCc2cc(OCCn3nccc3-c3cccc(F)c3)ccc2N1 [ALDHI-2023, 6-[2-[5-(3-fluorophenyl)pyrazol-1-yl]ethoxy]-3,4-dihydro-1H-quinolin-2-one] | < 100 nM
16 | Cn1cc(C2CCCN2CCOc2ccc3c(c2)SCC(=O)N3)cn1 (stereo not shown) [ALDHI-2026, 7-[2-[2-(1-methylpyrazol-4-yl)pyrrolidin-1-yl]ethoxy]-4H-1,4-benzothiazin-3-one] | 100 to 1000 nM
17 | O=C1CSc2cc(OCCN3CCCC3c3ccccn3)ccc2N1 (stereo not shown) [ALDHI-2027, 7-[2-[2-(2-pyridyl)pyrrolidin-1-yl]ethoxy]-4H-1,4-benzothiazin-3-one] | 100 to 1000 nM
18 | O=C1CSc2cc(OCCN3CCCC3c3cccnc3)ccc2N1 (stereo not shown) [ALDHI-2028, 7-[2-[2-(3-pyridyl)pyrrolidin-1-yl]ethoxy]-4H-1,4-benzothiazin-3-one] | < 100 nM
19 | O=C1CSc2cc(OCCN3CCCC3c3ccncc3)ccc2N1 (stereo not shown) [ALDHI-2029, 7-[2-[2-(4-pyridyl)pyrrolidin-1-yl]ethoxy]-4H-1,4-benzothiazin-3-one] | 100 to 1000 nM
20 | Cc1ccc(C2CCCN2CCOc2ccc3c(c2)CCC(=O)N3)cn1 (stereo not shown) [ALDHI-2030, 6-[2-[2-(6-methyl-3-pyridyl)pyrrolidin-1-yl]ethoxy]-3,4-dihydro-1H-quinolin-2-one] | 100 to 1000 nM

Row | SMILES | IC50
21 | O=C1CCc2cc(OCCN3CCOCC3c3cccc(F)c3)ccc2N1 (stereo not shown) [ALDHI-2031, 6-[2-[3-(3-fluorophenyl)morpholin-4-yl]ethoxy]-3,4-dihydro-1H-quinolin-2-one] | < 100 nM
22 | O=C1CCc2cc(OCCN3CCCC3c3cc(F)cc(F)c3)ccc2N1 (stereo not shown) [ALDHI-2032, 6-[2-[2-(3,5-difluorophenyl)pyrrolidin-1-yl]ethoxy]-3,4-dihydro-1H-quinolin-2-one] | < 100 nM
23 | Cc1nc(C2CCCN2CCOc2ccc3c(c2)CCC(=O)N3)cs1 (stereo not shown) [ALDHI-2033, 6-[2-[2-(2-methylthiazol-4-yl)pyrrolidin-1-yl]ethoxy]-3,4-dihydro-1H-quinolin-2-one] | 100 to 1000 nM
24 | COc1cccc(C2CCCN2CCOc2ccc3c(c2)CCC(=O)N3)c1 (stereo not shown) [ALDHI-2034, 6-[2-[2-(3-methoxyphenyl)pyrrolidin-1-yl]ethoxy]-3,4-dihydro-1H-quinolin-2-one] | 100 to 1000 nM
25 | CC1(c2cccc(F)c2)CCCN1CCOc1ccc2c(c1)CCC(=O)N2 (stereo not shown) [ALDHI-2037, 6-[2-[2-(3-fluorophenyl)-2-methyl-pyrrolidin-1-yl]ethoxy]-3,4-dihydro-1H-quinolin-2-one] | < 100 nM
26 | O=C1CCc2cc(OCCN3CCCCC3c3cccc(F)c3)ccc2N1 (stereo not shown) [ALDHI-2038, 6-[2-[2-(3-fluorophenyl)-1-piperidyl]ethoxy]-3,4-dihydro-1H-quinolin-2-one] | < 100 nM
27 | O=C1CCc2cc(OCCN3CCCC3c3ccc(F)c(F)c3)ccc2N1 (stereo not shown) [ALDHI-2039, 6-[2-[2-(3,4-difluorophenyl)pyrrolidin-1-yl]ethoxy]-3,4-dihydro-1H-quinolin-2-one] | < 100 nM
28 | CC1(c2ccccc2)COCCN1CCOc1ccc2c(c1)CCC(=O)N2 (stereo not shown) [ALDHI-2040, 6-[2-(3-methyl-3-phenyl-morpholin-4-yl)ethoxy]-3,4-dihydro-1H-quinolin-2-one] | 100 to 1000 nM
29 | O=C1CCc2cc(OCCn3ccnc3-c3ccccc3)ccc2N1 [ALDHI-2041, 6-[2-(2-phenylimidazol-1-yl)ethoxy]-3,4-dihydro-1H-quinolin-2-one] | 100 to 1000 nM
30 | CC1(C)Oc2cc(OCCN3CCCC3c3cccc(F)c3)ccc2NC1=O (stereo not shown) [ALDHI-2043, 7-[2-[2-(3-fluorophenyl)pyrrolidin-1-yl]ethoxy]-2,2-dimethyl-4H-1,4-benzoxazin-3-one] | 100 to 1000 nM
31 | CC1Oc2cc(OCCN3CCCC3c3cccc(F)c3)ccc2NC1=O (stereo not shown) [ALDHI-2044, 7-[2-[2-(3-fluorophenyl)pyrrolidin-1-yl]ethoxy]-2-methyl-4H-1,4-benzoxazin-3-one] | < 100 nM
32 | CCC1Oc2cc(OCCN3CCCC3c3cccc(F)c3)ccc2NC1=O (stereo not shown) [ALDHI-2045, 2-ethyl-7-[2-[2-(3-fluorophenyl)pyrrolidin-1-yl]ethoxy]-4H-1,4-benzoxazin-3-one] | < 100 nM
33 | CC1Cc2cc(OCCN3CCCC3c3cccc(F)c3)ccc2NC1=O (stereo not shown) [ALDHI-2048, 6-[2-[2-(3-fluorophenyl)pyrrolidin-1-yl]ethoxy]-3-methyl-3,4-dihydro-1H-quinolin-2-one] | < 100 nM
34 | O=C1CCc2cc(OCCN3CCCC3c3cccc(F)c3)c(F)cc2N1 (stereo not shown) [ALDHI-2050, 7-fluoro-6-[2-[2-(3-fluorophenyl)pyrrolidin-1-yl]ethoxy]-3,4-dihydro-1H-quinolin-2-one] | < 100 nM
35 | O=C1CCc2cc(OCCN3C(=O)CCC3c3ccccc3)ccc2N1 (stereo not shown) [ALDHI-2051, 6-[2-(2-oxo-5-phenyl-pyrrolidin-1-yl)ethoxy]-3,4-dihydro-1H-quinolin-2-one] | < 100 nM
36 | O=C1CCc2cc(OCCN3CC(F)CC3c3cccc(F)c3)ccc2N1 (stereo not shown) [ALDHI-2052, 6-[2-[4-fluoro-2-(3-fluorophenyl)pyrrolidin-1-yl]ethoxy]-3,4-dihydro-1H-quinolin-2-one] | < 100 nM
37 | O=C1CCc2cc(OCCN3CC(F)(F)CC3c3cccc(F)c3)ccc2N1 (stereo not shown) [ALDHI-2053, 6-[2-[4,4-difluoro-2-(3-fluorophenyl)pyrrolidin-1-yl]ethoxy]-3,4-dihydro-1H-quinolin-2-one] | < 100 nM
38 | CN(CCOc1ccc2c(c1)CCC(=O)N2)Cc1cccc(F)c1 [ALDHI-3001, 6-[2-[(3-fluorophenyl)methyl-methyl-amino]ethoxy]-3,4-dihydro-1H-quinolin-2-one] | 100 to 1000 nM
39 | O=C1CCc2cc(OCCN(CCO)Cc3cccc(F)c3)ccc2N1 [ALDHI-3002, 6-[2-[(3-fluorophenyl)methyl-(2-hydroxyethyl)amino]ethoxy]-3,4-dihydro-1H-quinolin-2-one] | < 100 nM
40 | CN(CCOc1ccc2c(c1)CCC(=O)N2)C(CO)c1cccc(F)c1 (stereo not shown) [ALDHI-3003, 6-[2-[[1-(3-fluorophenyl)-2-hydroxy-ethyl]-methyl-amino]ethoxy]-3,4-dihydro-1H-quinolin-2-one] | 100 to 1000 nM

From patent publication US20240174634A1, “Aldehyde Dehydrogenase Inhibitors and Their Therapeutic Use” (priority 2020, published 2024)
